Reference: patent US20260008746A1, “CATIONIC LIPID COMPOUND WITH HIGH EFFICIENCY, LOW TOXICITY AND STABLE EXPRESSION, AND COMPOSITION COMPRISNG SAME” (HANGZHOU TIANLONG PHARMACEUTICAL CO., LTD, priority 2023, published 2026)
Several values for one entry are separate records, joined by “and”; a condition that tells them apart may be missing. Identical values can stand only once.

Tests used:
[1] = Determination of particle size and polydispersity index (PDI) of lipid nanoparticles by dynamic light scattering; format: physicochemical; settings: LNP formulation of named cationic lipid/DSPC/cholesterol/DMG-PEG2000 49:10:39.5:1.5; for Particle size (nm): 90° scattering angle, 25° C
Protocol: The cationic lipids listed in Table 1 were dissolved in ethanol with DSPC (AVT (Shanghai) Pharmaceutical Technology Co., Ltd.), cholesterol (AVT (Shanghai) Pharmaceutical Technology Co., Ltd.) and DMG-PEG2000 according to a molar ratio of 49:10:39.5:1.5, respectively, to prepare lipid solution in ethanol. The lipid solution in ethanol was quickly added to citrate buffer (pH=4 to 5) by ethanol injection method, and vortexed for 30 s for later use. eGFP-mRNA (from Shanghai Biohub International Trade Co., Ltd) or Fluc-mRNA (from Shanghai Biohub International Trade Co., Ltd) was diluted in citrate buffer (pH=4 to 5) to give an aqueous mRNA solution. A certain volume of liposome solution and mRNA aqueous solution were used to prepare liposomes at a weight ratio of total lipids to mRNA of 15:1. The mixtures were sonicated at 25° C. for 15 min (with an ultrasonic frequency of 40 kHz and an ultrasonic power of 800 W). The resulting liposomes were diluted to 10 times volume with PBS, and then ultrafiltered with a 300 KDa ultrafiltration tube to remove ethanol. Then the volume was fixed to a certain volume with PBS to give an LNP formulation encapsulating eGFP-mRNA or Fluc-mRNA using cationic lipid/DSPC/cholesterol/DMG-PEG2000 (49:10:39.5:1.5 in molar percentage).
The particle size and polydispersity index (PDI) were determined by dynamic light scattering using Malvern laser particle size analyzer.
10 μL of the liposome solution was weighed, diluted to 1 mL with RNase-free deionized water, and added to the sample pool. Each sample was measured in triplicate. The measurement conditions were: 90° scattering angle, and 25° C.

293T cells [2] = assay: Fluorescent detection of Fluc-mRNA (cell transfection efficiency of LNP formulations); format: cell-based; settings: for Relative light unit (RLU): LNP formulation containing 0.3 μg Fluc-mRNA, 96-well plate, 24 hours; for Multiples (YK-101): RLU of YK-101 / RLU of named substance; for Multiples (YK-107): RLU of YK-107 / RLU of named substance; for Multiples (YK-108): RLU of YK-108 / RLU of named substance; for Ratio relative to SM-102: RLU of named substance / RLU of SM-102; for difference from SM-102 in Fluc-mRNA fluorescence (GraphPad Prism analysis): statistical comparison with SM-102
Outline: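 293T cells seeded at 10,000 per well, cultured overnight, then given LNP carrying 0.3 μg Fluc-mRNA (cationic:neutral:structured:PEG-lipid 49:10:39.5:1.5 molar). Incubated 24 h. Luciferase signal read with kit reagent on an IVIS imaging system.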

293T cells [3] = assay: Cell survival rate determination (CCK-8); format: cell-based; settings: for Cell survival rate (%): LNP formulation containing 1.5 μg Fluc-mRNA, 24 hours, CCK-8, absorbance at 450 nm; for cell survival rate lower than that of YK-101: cell survival rate of YK-101 minus that of named substance; for cell survival rate lower than that of YK-107: cell survival rate of YK-107 minus that of named substance; for cell survival rate lower than that of YK-108: cell survival rate of YK-108 minus that of named substance
Outline: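 293T cells were seeded overnight at 10,000 cells/well in 96-well plates, then exposed for 24 h to LNP containing 1.5 μg Fluc-mRNA (cationic:neutral:structural:polymer-conjugated lipid, 49:10:39.5:1.5 molar) or to Lipofectamine 3000. Viability was read by CCK-8, 1 h incubation, absorbance 450 nm.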

BALB/C mice = assay: In vivo imaging of Fluc-mRNA expression in mice delivered by LNP formulations; settings: for average radiation intensity, 6 h / average radiation intensity, 24 h / average radiation intensity, 48 h / average radiation intensity, 7 d: LNP containing 10 pg Fluc-mRNA, intramuscular, female BALB/C mice
Protocol: The LNP formulation containing […] Fluc-mRNA was injected intramuscularly into female BALB/C mice aged 4-6 weeks old and weighed 17-19 g, and the mice were intraperitoneally injected with fluorescent imaging substrate at specific time points after administration (6h, 24 h, 48h and 7d), where the mice were allowed to move freely for 5 minutes, and then the average radiation intensity (corresponding to fluorescence expression intensity) of the protein expression of the mRNA carried by the LNP in the mice was detected by the IVIS Spectrum small animal in vivo imaging device. The test results are shown in Tables 11 to 14 and FIGS. 12 to 14.

[4] = highest multiple, time point not stated

## CCCCCCCCC(CCCCCCCC)OC(=O)CCCCCCCN(CCO)CCCCCCCC(=O)OCCC(CCCCCC)CCCCCC [Compound 21, 9-heptadecyl 8-(8-((3-hexylnonyl)oxy)-8-oxoctyl)-((2-hydroxyethyl)amino)octoate, reference compound]
[1]
  PDI(%): 12.5%
  Particle size (nm): 151 nm
293T cells [2]
  Relative light unit (RLU): 1389141 RLU
  Multiples (YK-101): 14.64
  Multiples (YK-107): 16.10
  Multiples (YK-108): 17.75
  Ratio relative to SM-102: 0.91
293T cells [3]
  Cell survival rate (%): 68.53%
  cell survival rate lower than that of YK-101: 21.59%
  cell survival rate lower than that of YK-107: 21.92%
  cell survival rate lower than that of YK-108: 21.33%
BALB/C mice; 6 h
  average radiation intensity of YK-101, times that of named substance: 2.5 times
  average radiation intensity of YK-107, times that of named substance: 2.6 times
  average radiation intensity of YK-108, times that of named substance: 3.3 times
  average radiation intensity, 6 h: 606680
BALB/C mice; 24 h
  average radiation intensity of YK-101, times that of named substance: 9.6 times
  average radiation intensity of YK-107, times that of named substance: 11.8 times
  average radiation intensity of YK-108, times that of named substance: 12.8 times
  average radiation intensity, 24 h: 110210
BALB/C mice; 48 h
  average radiation intensity of YK-101, times that of named substance: 6.0 times
  average radiation intensity of YK-107, times that of named substance: 7.3 times
  average radiation intensity of YK-108, times that of named substance: 7.4 times
  average radiation intensity, 48 h: 31062
BALB/C mice; 7 d
  average radiation intensity of YK-101, times that of named substance: 2.0 times
  average radiation intensity of YK-107, times that of named substance: 2.2 times
  average radiation intensity of YK-108, times that of named substance: 2.4 times
  average radiation intensity, 7 d: 6024

## CCCCCCCCCCOC(=O)CCCN(CCO)CCCCC(=O)OCCC(CCCCCC)CCCCCC [YK-104]
[1]
  PDI(%): 26.9%
  Particle size (nm): 200 nm
293T cells [2]
  Relative light unit (RLU): 1693707 RLU
  Multiples (YK-107): 13.20
  Multiples (YK-108): 14.56
  Ratio relative to SM-102: 1.10
  difference from SM-102 in Fluc-mRNA fluorescence (GraphPad Prism analysis): no significant difference
293T cells [3]
  Cell survival rate (%): 73.55%
  cell survival rate lower than that of YK-101: 16.57%
  cell survival rate lower than that of YK-107: 16.90%
  cell survival rate lower than that of YK-108: 16.31%
BALB/C mice; 6 h
  average radiation intensity of YK-101, times that of named substance: 2.0 times
  average radiation intensity of YK-107, times that of named substance: 2.1 times
  average radiation intensity of YK-108, times that of named substance: 2.7 times
  average radiation intensity, 6 h: 747000
BALB/C mice; 24 h
  average radiation intensity of YK-101, times that of named substance: 9.3 times
  average radiation intensity of YK-107, times that of named substance: 11.4 times
  average radiation intensity of YK-108, times that of named substance: 12.3 times
  average radiation intensity, 24 h: 113940
BALB/C mice; 48 h
  average radiation intensity of YK-101, times that of named substance: 5.6 times
  average radiation intensity of YK-107, times that of named substance: 6.8 times
  average radiation intensity of YK-108, times that of named substance: 7.0 times
  average radiation intensity, 48 h: 33095
BALB/C mice; 7 d
  average radiation intensity of YK-101, times that of named substance: 1.5 times
  average radiation intensity of YK-107, times that of named substance: 1.7 times
  average radiation intensity of YK-108, times that of named substance: 1.8 times
  average radiation intensity, 7 d: 7969

## CCCCCCCCC(CCCCCC)C(=O)OCCCCCCN(CCCCO)CCCCCCOC(=O)C(CCCCCC)CCCCCCCC (stereo not shown) [ALC-0315, reference compound]
[1]
  PDI(%): 15.0%
  Particle size (nm): 209 nm
293T cells [2]
  Relative light unit (RLU): 2056890 RLU
  Multiples (YK-101): 9.89
  Multiples (YK-107): 10.87
  Multiples (YK-108): 11.99
  Ratio relative to SM-102: 1.34
293T cells [3]
  Cell survival rate (%): 51.02%
  cell survival rate lower than that of YK-101: 39.10%
  cell survival rate lower than that of YK-107: 39.43%
  cell survival rate lower than that of YK-108: 38.84%
BALB/C mice; 6 h
  average radiation intensity of YK-101, times that of named substance: 1.8 times
  average radiation intensity of YK-107, times that of named substance: 1.9 times
  average radiation intensity of YK-108, times that of named substance: 2.4 times
  average radiation intensity, 6 h: 830590
BALB/C mice; 24 h
  average radiation intensity of YK-101, times that of named substance: 5.9 times
  average radiation intensity of YK-107, times that of named substance: 7.2 times
  average radiation intensity of YK-108, times that of named substance: 7.8 times
  average radiation intensity, 24 h: 179680
BALB/C mice; 48 h
  average radiation intensity of YK-101, times that of named substance: 4.8 times
  average radiation intensity of YK-107, times that of named substance: 5.8 times
  average radiation intensity of YK-108, times that of named substance: 5.9 times
  average radiation intensity, 48 h: 39015
BALB/C mice; 7 d
  average radiation intensity of YK-101, times that of named substance: 1.8 times
  average radiation intensity of YK-107, times that of named substance: 2.0 times
  average radiation intensity of YK-108, times that of named substance: 2.1 times
  average radiation intensity, 7 d: 6643

## CCCCCCCCCCOC(=O)CCCN(CCCCCC(=O)OCC(CCCCCCCC)CCCCCCCC)CCOC(=O)CCCN(C)C [YK-126]
[1]
  PDI(%): 15.1%
  Particle size (nm): 260 nm
293T cells [2]
  cell transfection activity, times that of YK-125: 1.3 times
  Relative light unit (RLU): 219983 RLU
  Multiples (YK-101): 92.44
  Multiples (YK-107): 101.65
  Multiples (YK-108): 112.10
  Ratio relative to SM-102: 0.14
  difference from SM-102 in Fluc-mRNA fluorescence (GraphPad Prism analysis): significant difference
293T cells [2]; RLU of named substance / RLU of HHMA
  fluorescence absorption value, times that of HHMA: 0.11 times
293T cells [2]; RLU of named substance / RLU of Lipofectamine 3000
  fluorescence absorption value, times that of Lipofectamine 3000: 0.20 times
293T cells [2]; RLU of named substance / RLU of compound 21
  Fluc-mRNA expression signal intensity, times that of compound 21: 0.16 times
293T cells [2]; RLU of named substance / RLU of compound 23
  fluorescence absorption value, times that of compound 23: 0.17 times
293T cells [3]
  cell survival rate lower than that of YK-122: 54.12%
  cell survival rate lower than that of YK-124: 52.53%
  Cell survival rate (%): 25.03%
  cell survival rate lower than that of YK-101: 60% and 65.09%
  cell survival rate lower than that of YK-107: 60% and 65.42%
  cell survival rate lower than that of YK-108: 60% and 64.83%
BALB/C mice; 6 h
  average radiation intensity of YK-101, times that of named substance: 9.6 times
  average radiation intensity of YK-107, times that of named substance: 10.3 times
  average radiation intensity of YK-108, times that of named substance: 13.0 times
  average radiation intensity, 6 h: 155160
BALB/C mice; 24 h
  average radiation intensity of YK-101, times that of named substance: 50.4 times
  average radiation intensity of YK-107, times that of named substance: 62.2 times
  average radiation intensity of YK-108, times that of named substance: 67.1 times
  average radiation intensity, 24 h: 20939
BALB/C mice; 48 h
  average radiation intensity of YK-101, times that of named substance: 27.9 times
  average radiation intensity of YK-107, times that of named substance: 34.0 times
  average radiation intensity of YK-108, times that of named substance: 34.6 times
  average radiation intensity, 48 h: 6656
BALB/C mice; 7 d
  average radiation intensity of YK-101, times that of named substance: 13.9 times
  average radiation intensity of YK-107, times that of named substance: 15.2 times
  average radiation intensity of YK-108, times that of named substance: 16.2 times
  average radiation intensity, 7 d: 877
BALB/C mice; [4]
  expression amount of mRNA in mice of YK-101, times that of named substance: 50 times
  expression amount of mRNA in mice of YK-107, times that of named substance: 62 times
